Measured values reported in patent publication US8211897B2, “Inhibitors of cathepsin B” (ViroBay, Inc., priority 2008, dated 2012).

Columns and labels:
[1] = target: T1, Human Liver Cathepsin B (Homo sapiens, UniProt P07858); experiment: Biochemical assay of inhibition of Cathepsin B enzymatic activity; conditions: 20 uM Boc-Leu-Arg-Arg-AMC, pH 5.5, 15 minutes preincubation, 30 minutes at 25° C.
T1 construct: from tissue; host or cells: human liver
Protocol: The test compound of Formula (I) was dissolved in dimethylsulfoxide (DMSO) and diluted in assay buffer. An 8 point dose response curve was completed in order to evaluate the IC50 value of inhibition of Cathepsin B enzymatic activity (IC50 is defined as the concentration which inhibited 50% of maximal enzyme activity). The assay protocol was adapted from Barrett, 1980. Human Liver Cathepsin B was incubated in assay buffer (50 mM sodium acetate, pH 5.5, 1 mM dithiothreitol (DTT), 2 mM ethylenediaminetetraacetic acid (EDTA) with 20 uM peptide substrate (Boc-Leu-Arg-Arg-AMC) with the compounds diluted from DMSO stocks or DMSO vehicle alone. Final DMSO concentration was retained at 1% in the assay. The test compound was preincubated with the enzyme for 15 minutes at 25° C. Reaction was started with the addition of substrate, and allowed to proceed for 30 minutes at 25° C. Substrate cleavage was monitored with spectrofluorimetric quantitation of methylcoumarylamide (AMC).

[2] = tested on: Liver fibrosis induced in mice by carbon tetrachloride; experiment: Carbon tetrachloride-induced liver fibrosis model; format: in vivo; conditions: CCl4 fibrosis, once daily from day 12, 250 mg/kg and 50 mg/kg, terminal day 33
Protocol: Liver fibrosis was induced in mice by intraperitoneal administration of carbon tetrachloride every 5 days over a 28-day period (days 0-28). On day 11, plasma alanine aminotransferase (ALT) levels and aspertate aminotransferase (AST) were measured from representative mice to confirm liver damage. (2S,4R)-1-((S)-(3-tert-butylureido)-3,3-dimethylbutanoyl]-N-((S)-1-cyclopropylamino)-1,2-dioxohexan-3-yl)-4-(7-methoxy-2-(1H-pyrazol-1-yl)-quinolin-4-yloxy)pyrrolidine-2-carboxamide was administered therapeutically, once daily, starting on day 12, […]. On day 33, terminal plasma AST and ALT, liver hydroxyproline, PK/PD, and histology were assessed.

[3] = target: T2, Cathepsin B in human cells (HUVECs) (Homo sapiens, UniProt P07858); experiment: Cellular activity-based probe (whole-cell enzyme occupancy) assay; conditions: serum-free media, 4 hours compound treatment, 125I-DMK probe 1 hour
T2 construct: endogenous in cells; host or cells: HUVEC (human umbilical vein endothelial cells)
Protocol: Activity of Cathepsin B in cells was measured with the use of an activity-based radioactive probe in a whole-cell enzyme occupancy assay. This method was used to determine the specific potencies of compounds on Cathepsin B in the intracellular environment. The probe used was a peptide diazomethylketone which binds to Cathepsins, including Cathepsin B, potently and irreversibly. This cell-permeable probe binds to active Cathepsin B and binding can be quantified to determine the level of Cathepsin B activity in cells. Cathepsin B enzyme in cells which has bound to an inhibitor is not active and as such not available for binding by the activity-based probe.
The method used was based on a modification of a published method (Falgueyret J-P, et al. 2004. Anal. Biochem. 335:218-227). Human umbilical vein endothelial cells (HUVECs) were grown in 24 well plates in standard growth conditions. […]
To analyze probe-labeled proteins, samples were boiled for 5 minutes and analyzed by SDS-PAGE. […] The band intensities on the autoradiographs were determined. Autoradiographs were scanned using a Microtek ScanMakeri900 scanner and bands quantified with a program such as the BioRad Imaging program QuantityOne or ImageJ. Compound potencies were calculated as a % of the no inhibitor control and IC50 values were extrapolated from the dose-response curves using a suitable program like GraphPad Prism.

Structure (SMILES): CCC[C@H](NC(=O)[C@@H]1C[C@@H](Oc2nccc3cc(OCC)ccc23)CN1C(=O)[C@@H](NC(=O)NC(C)(C)C)C(C)(C)C)C(=O)C(=O)NC1CC1 [Example 12, (2S,4R)-1-((S)-2-(3-tert-Butylureido)-3,3-dimethylbutanoyl)-N-((S)-1-(cyclopropylamino)-1,2-dioxohexan-3-yl)-4-(6-ethoxyisoquinolin-1-yloxy)-pyrrolidine-2-carboxamide]
- IC50 [1]: 45 nM

Structure (SMILES): CCC[C@H](NC(=O)[C@@H]1CC(Oc2cc(-n3cccn3)nc3cc(OC)ccc23)CN1C(=O)[C@@H](NC(=O)NC(C)(C)C)C(C)(C)C)C(=O)C(=O)NC1CC1 (stereo partly shown) [Example 1]
- IC50 [1]: < 500 nM
- liver hydroxyproline [2]: decreased
- plasma ALT [2]: decreased
- plasma AST [2]: decreased
- IC50 [3]: 24 nM

Structure (SMILES): CCC[C@H](NC(=O)[C@@H]1CC(Oc2cc(-n3cccn3)nc3cc(OC)ccc23)CN1C(=O)[C@@H](NC(=O)NCC1CC1)C(C)(C)C)C(=O)C(=O)NC1CC1 (stereo partly shown)
- IC50 [1]: 83 nM

Structure (SMILES): CCC[C@H](NC(=O)[C@@H]1C[C@@H](Oc2nc(-c3ccccn3)nc3ccsc23)CN1C(=O)[C@@H](NC(=O)NC(C)(C)C)C(C)(C)C)C(=O)C(=O)NC1CC1 [Example 17, (2S,4R)-1-((S)-2-(3-tert-butylureido)-3,3-dimethylbutanoyl)-N-((S)-1-(cyclopropylamino)-1,2-dioxohexan-3-yl)-4-(2-(pyridin-2-yl)thieno[3,2-d]pyrimidin-4-yloxy)pyrrolidine-2-carboxamide]
- IC50 [1]: 33 nM

Structure (SMILES): CCC[C@H](NC(=O)[C@@H]1C[C@@H](Oc2nc(-c3ccccn3)nc3sccc23)CN1C(=O)[C@@H](NC(=O)NC(C)(C)C)C(C)(C)C)C(=O)C(=O)NC1CC1 [Example 16, (2S,4R)-1-((S)-2-(3-tert-butylureido)-3,3-dimethylbutanoyl)-N-((S)-1-(cyclopropylamino)-1,2-dioxohexan-3-yl)-4-(2-(pyridin-2-yl)thieno[2,3-d]pyrimidin-4-yloxy)pyrrolidine-2-carboxamide]
- IC50 [1]: 45 nM

Structure (SMILES): CCCC[C@H](NC(=O)[C@@H]1CC(Oc2nccc3cc(OC)ccc23)CN1C(=O)[C@@H](NC(=O)NC(C)(C)C)C(C)(C)C)C(=O)C(=O)NC1CC1 (stereo partly shown) [Example 13]
- IC50 [1]: 28 nM

Structure (SMILES): CCC[C@H](NC(=O)[C@@H]1CC(Oc2cc(-c3ccccn3)nc3ccsc23)CN1C(=O)[C@@H](NC(=O)NC(C)(C)C)C(C)(C)C)C(=O)C(=O)NC1CC1 (stereo partly shown)
- IC50 [1]: 86 nM

Structure (SMILES): CCC[C@H](NC(=O)[C@@H]1C[C@@H](Oc2cc(-n3cccn3)nc3cc(OC)ccc23)CN1C(=O)[C@@H](NC(=O)NCC(C)(C)C)C(C)(C)C)C(=O)C(=O)NC1CC1 [(2S,4R)-N-((S)-1-(cyclopropylamino)-1,2-dioxohexan-3-yl)-1-((S)-3,3-dimethyl-2-(3-neopentylureido)butanoyl)-4-(7-methoxy-2-(1H-pyrazol-1-yl)quinolin-4-yloxy)pyrrolidine-2-carboxamide]
- IC50 [1]: 61 nM

Structure (SMILES): CCOc1ccc2c(O[C@@H]3C[C@@H](C(=O)N[C@@H](CC4CC4)C(=O)C(=O)NC4CC4)N(C(=O)[C@@H](NC(=O)NC(C)(C)C)C(C)(C)C)C3)nccc2c1 [Example 11, (2S,4R)-1-((S)-2-(3-tert-Butylureido)-3,3-dimethylbutanoyl)-N-((S)-1-cyclopropyl-4-(cyclopropylamino)-3,4-dioxobutan-2-yl)-4-(6-ethoxyisoquinolin-1-yloxy)-pyrrolidine-2-carboxamide]
- IC50 [1]: 49 nM

Structure (SMILES): CCC[C@H](NC(=O)[C@@H]1C[C@@H](Oc2nccc3cc(OC)ccc23)CN1C(=O)[C@@H](NC(=O)NC(C)(C)C)C(C)(C)C)C(=O)C(=O)NC1CC1 [Example 9]
- IC50 [1]: 27 nM

Structure (SMILES): CCC[C@H](NC(=O)[C@@H]1C[C@@H](Oc2nc(-c3cc(C)nn3C)nc3ccsc23)CN1C(=O)[C@@H](NC(=O)NC(C)(C)C)C(C)(C)C)C(=O)C(=O)NC1CC1 [Example 18, (2S,4R)-1-((S)-2-(3-tert-butylureido)-3,3-dimethylbutanoyl)-N-((S)-1-(cyclopropylamino)-1,2-dioxohexan-3-yl)-4-(2-(1,3-dimethyl-1H-pyrazol-5-yl)thieno[3,2-d]pyrimidin-4-yloxy)pyrrolidine-2-carboxamide]
- IC50 [1]: 72 nM

Structure (SMILES): COc1ccc2c(O[C@@H]3C[C@@H](C(=O)N[C@@H](CC4CCC4)C(=O)C(=O)NC4CC4)N(C(=O)[C@@H](NC(=O)NC(C)(C)C)C(C)(C)C)C3)cc(-n3cccn3)nc2c1 [Example 2, (2S,4R)-1-((S)-(3-tert-butylureido)-3,3-dimethylbutanoyl]-N-((S)-1-cyclobutyl-4-(cyclopropylamino)-3,4-dioxobutan-2-yl)-4-(7-methoxy-2-(1H-pyrazol-1-yl)-quinolin-4-yloxy)pyrrolidine-2-carboxamide]
- IC50 [1]: < 500 nM
- liver hydroxyproline [2]: reduces
- plasma ALT [2]: reduces
- plasma AST [2]: reduces
- IC50 [3]: 19 nM

Structure (SMILES): CCC[C@H](NC(=O)[C@@H]1C[C@@H](Oc2nc(C)cc3cc(OC)ccc23)CN1C(=O)[C@@H](NC(=O)NC(C)(C)C)C(C)(C)C)C(=O)C(=O)NC1CC1 [Example 15, (2S,4R)-1-((S)-2-(3-tert-butylureido)-3,3-dimethylbutanoyl)-N-((S)-1-(cyclopropylamino)-1,2-dioxohexan-3-yl)-4-(6-methoxy-3-methylisoquinolin-1-yloxy)pyrrolidine-2-carboxamide]
- IC50 [1]: 32 nM

Structure (SMILES): COc1ccc2c(O[C@@H]3C[C@@H](C(=O)N[C@@H](CC4CC4)C(=O)C(=O)NC4CC4)N(C(=O)[C@@H](NC(=O)NC(C)(C)C)C(C)(C)C)C3)nccc2c1 [Example 10, (2S,4R)-1-((S)-2-(3-tert-Butylureido)-3,3-dimethylbutanoyl)-N-((S)-1-cyclopropyl-4-(cyclopropylamino)-3,4-dioxobutan-2-yl)-4-(6-methoxyisoquinolin-1-yloxy)-pyrrolidine-2-carboxamide]
- IC50 [1]: 56 nM
